The structures appear in SMILES notation.

We go through 76 compounds from ChEMBL document CHEMBL1615345, “Evaluation of a published in silico model and construction of a novel Bayesian model for predicting phospholipidosis inducing potential” (J Chem Inf Model, 2007).

The test system of series [1] is Phospholipidosis.
Series [2] relates to Phospholipidosis. The conditions noted are these: rat.

With `CN(C)CCN(Cc1cccs1)c1ccccn1`, the Phospholipidosis result with Phospholipidosis [1] was “Not Active”. For the compound `CN1CCN(Cc2nc3cccc4c3c([n+]2[O-])-c2ccccc2-4)CC1`, the Phospholipidosis result in the series on Phospholipidosis [2] was “Active”. Regarding `CC1=C(CC(=O)O)c2cc(F)ccc2/C1=C\c1ccc([S+](C)[O-])cc1` (stereo unspecified), the Phospholipidosis result in the series on Phospholipidosis [1] is reported as “Not Active”. Turning to `CN(C)CCC=C1c2ccccc2CCc2c(Cl)cccc21`, the Phospholipidosis entry in the series with Phospholipidosis [2] is “Active”.

Take `OC(CN1CCCCC1)c1ccc(C=C2c3ccccc3-c3ccccc32)cc1` (stereo unspecified): the Phospholipidosis entry with Phospholipidosis [2] is reported as “Active”. Same read-out and setting: the result for `CCCC[C@@H]1CC(=O)[C@]2(O)O[C@@H]3[C@@H](NC)[C@@H](O)[C@@H](NC)[C@H](O)[C@H]3O[C@@H]2O1.O=S(=O)(O)O` reads “Active”; that for `CN1CCN(C2=Nc3cc(Cl)ccc3N(C)n3cccc32)CC1`, “Active”.

Consider `C=C1C[C@@H]1C[C@H](N)C(=O)O`, for which the Phospholipidosis result with Phospholipidosis [1] is listed as “Not Active”. As for `CN(C)CCC=C1c2ccccc2C=Cc2c(Cl)cccc21`, the Phospholipidosis entry in the series with Phospholipidosis [2] is recorded as “Active”. Still for that read-out and setting: the result for `CCN(CC)CCn1nc2c3c(c(C)ccc31)Sc1cc(Cl)ccc1-2` reads “Active”.

Regarding `NC[C@H]1Cc2ccc(F)cc2[C@@H](c2ccccc2)O1`, the Phospholipidosis result with Phospholipidosis [2] is “Active”.

Consider `S=C=Nc1cccc2ccccc12` [1-NAPHTHYLISOTHIOCYANATE], for which the Phospholipidosis result in the series on Phospholipidosis [1] was “Not Active”. The same measure, in the same setting: the result for `Cc1ccc2cc3c(ccc4ccccc43)c3c2c1CC3` [3-METHYLCHOLANTHRENE] reads “Not Active”; that for `Nc1nc(NC2CC2)c2ncn([C@H]3C=C[C@@H](CO)C3)c2n1` [ABACAVIR], “Not Active”. The same measure, in the same setting: the result for `CC(=O)Nc1ccc(O)cc1` [ACETAMINOPHEN] reads “Not Active”. On to `NCC[C@H](O)C(=O)N[C@@H]1C[C@H](N)[C@@H](O[C@H]2O[C@H](CN)[C@@H](O)[C@H](O)[C@H]2O)[C@H](O)[C@H]1O[C@H]1O[C@H](CO)[C@@H](O)[C@H](N)[C@H]1O` [AMIKACIN], for which the Phospholipidosis result in the series with Phospholipidosis [2] is reported as “Active”. As to `O=C(O)CCCCCCNC1c2ccccc2CCc2ccccc21` [AMINEPTINE], the Phospholipidosis result with Phospholipidosis [1] is reported as “Not Active”.

For the compound `CN(C)CCC=C1c2ccccc2CCc2ccccc21` [AMITRIPTYLINE], in the series with Phospholipidosis [2], the Phospholipidosis result is recorded as “Active”. As to `CC(=O)Oc1ccccc1C(=O)O` [ASPIRIN], the Phospholipidosis result with Phospholipidosis [1] is “Not Active”. Still for that read-out and setting: the result for `Cl.Cl.O=C(CCN1CCN2CCCC2C1)N1c2ccccc2Sc2ccc(Cl)cc21` (stereo unspecified) [AZACLORZINE HYDROCHLORIDE] reads “Not Active”; that for `[N-]=[N+]=CC(=O)OC[C@H](N)C(=O)O` [AZASERINE], “Not Active”; that for `CC(O)(CS(=O)(=O)c1ccc(F)cc1)C(=O)Nc1ccc(C#N)c(C(F)(F)F)c1` (stereo unspecified) [BICALUTAMIDE], “Not Active”. Regarding `FC(F)(F)c1ccc(-c2ccc(OCCN3CCCC3)cc2)cc1` [BOXIDINE], in the series on Phospholipidosis [2], the Phospholipidosis entry is “Active”.

In the case of `CC(NC(C)(C)C)C(=O)c1cccc(Cl)c1` (stereo unspecified) [BUPROPION], in the series with Phospholipidosis [1], the Phospholipidosis entry is “Not Active”.

Take `Cn1c(=O)c2c(ncn2C)n(C)c1=O` [CAFFEINE]: the Phospholipidosis result with Phospholipidosis [1] is reported as “Not Active”. Same read-out and setting: the result for `NC(=O)N1c2ccccc2C=Cc2ccccc21` [CARBAMAZEPINE] reads “Not Active”; that for `ClC(Cl)(Cl)Cl` [CARBON TETRACHLORIDE], “Not Active”. Still for that read-out and setting: to `CC(C)(O/N=C(\C(=O)N[C@@H]1C(=O)N2C(C(=O)[O-])=C(C[n+]3ccccc3)CS[C@H]12)c1csc(N)n1)C(=O)O` [CEFTAZIDIME] belongs “Not Active”.

Take `CN1CCN(C(c2ccccc2)c2ccc(Cl)cc2)CC1` (stereo unspecified) [CHLORCYCLIZINE]: in the series with Phospholipidosis [2], the Phospholipidosis entry is recorded as “Active”. Consider `ClC(Cl)Cl` [CHLOROFORM], for which, in the series on Phospholipidosis [1], the Phospholipidosis entry is given as “Not Active”.

With `CN(C)[C@@H]1C(O)=C(C(N)=O)C(=O)[C@@]2(O)C(O)=C3C(=O)c4c(O)ccc(Cl)c4[C@@](C)(O)[C@H]3C[C@@H]12` [CHLORTETRACYCLINE], the Phospholipidosis entry in the series with Phospholipidosis [1] is reported as “Not Active”.

For `CC(C)(Oc1ccc(C2CC2(Cl)Cl)cc1)C(=O)O` (stereo unspecified) [CIPROFIBRATE], the Phospholipidosis result in the series with Phospholipidosis [1] is “Not Active”.

For `CN(C)CCCC1(c2ccc(F)cc2)OCc2cc(C#N)ccc21` (stereo unspecified) [CITALOPRAM], the Phospholipidosis entry in the series with Phospholipidosis [2] was “Active”. For the compound `CCOC(=O)C(C)(C)Oc1ccc(Cl)cc1` [CLOFIBRATE], in the series on Phospholipidosis [1], the Phospholipidosis result was “Not Active”. Consider `CN(C)CCCC1c2ccccc2Nc2ccc(Cl)cc21` (stereo unspecified) [CLOMACRAN], for which the Phospholipidosis entry in the series with Phospholipidosis [2] is given as “Active”. Still for that read-out and setting: the result for `CN(C)CCCN1c2ccccc2CCc2ccc(Cl)cc21` [CLOMIPRAMINE] reads “Active”. In the case of `COc1cc2c(c(OC)c1OC)-c1ccc(OC)c(=O)cc1[C@@H](NC(C)=O)CC2` [COLCHICINE], the Phospholipidosis result with Phospholipidosis [1] is listed as “Not Active”. On the same count and under the same terms, the result for `CC(=O)O[C@]1(C(C)=O)CC[C@H]2[C@@H]3C=C(Cl)C4=CC(=O)[C@@H]5C[C@@H]5[C@]4(C)[C@H]3CC[C@@]21C` [CYPROTERONE ACETATE] reads “Not Active”; that for `O=C1CN(/N=C/c2ccc(-c3ccc([N+](=O)[O-])cc3)o2)C(O)=N1` [DANTROLENE], “Not Active”; that for `CC(=O)N(O)CCCCCNC(=O)CCC(=O)N(O)CCCCCNC(=O)CCC(=O)N(O)CCCCCN` [DEFEROXAMINE], “Not Active”. With `CN(C)[C@@H]1C(O)=C(C(N)=O)C(=O)[C@@]2(O)C(O)=C3C(=O)c4c(O)ccc(Cl)c4[C@@H](O)[C@H]3C[C@@H]12` [DEMECLOCYCLINE], in the series with Phospholipidosis [1], the Phospholipidosis entry is “Not Active”. On the same count and under the same terms, the result for `O=C(O)Cc1ccccc1Nc1c(Cl)cccc1Cl` [DICLOFENAC] reads “Not Active”; that for `O=C(O)c1cc(-c2ccc(F)cc2F)ccc1O` [DIFLUNISAL], “Not Active”; that for `COc1cc2c(cc1OC)C(=O)C(CC1CCN(Cc3ccccc3)CC1)C2` (stereo unspecified) [DONEPEZIL], “Not Active”. Take `CCN1CC(CCN2CCOCC2)C(c2ccccc2)(c2ccccc2)C1=O` (stereo unspecified) [DOXAPRAM]: in the series on Phospholipidosis [1], the Phospholipidosis result is recorded as “Not Active”. The same measure, in the same setting: to `C[C@H]1c2cccc(O)c2C(=O)C2=C(O)[C@]3(O)C(=O)C(C(N)=O)=C(O)[C@@H](N(C)C)[C@@H]3[C@@H](O)[C@@H]21.O` [DOXYCYCLINE] belongs “Not Active”; to `C#C[C@]1(O)CC[C@H]2[C@@H]3CCc4cc(O)ccc4[C@H]3CC[C@@]21C` [ETHINYL ESTRADIOL], “Not Active”; to `CCSCC[C@H](N)C(=O)O` [ETHIONINE], “Not Active”. The same measure, in the same setting: the result for `COc1cc([C@@H]2c3cc4c(cc3[C@@H](O[C@@H]3O[C@@H]5CO[C@@H](C)O[C@H]5[C@H](O)[C@H]3O)[C@H]3COC(=O)[C@H]23)OCO4)cc(OC)c1O` [ETOPOSIDE] reads “Not Active”.

For `NC(N)=Nc1nc(CSCCC(N)=NS(N)(=O)=O)cs1` [FAMOTIDINE], the Phospholipidosis result in the series on Phospholipidosis [1] was “Not Active”. On the same count and under the same terms, to `NC(=O)OCC(COC(N)=O)c1ccccc1` [FELBAMATE] belongs “Not Active”; to `CC(C)OC(=O)C(C)(C)Oc1ccc(C(=O)c2ccc(Cl)cc2)cc1` [FENOFIBRATE], “Not Active”. Same read-out and setting: the result for `CC(C)C(=O)Nc1ccc([N+](=O)[O-])c(C(F)(F)F)c1` [FLUTAMIDE] reads “Not Active”; that for `Cc1ccc(C)c(OCCCC(C)(C)C(=O)O)c1` [GEMFIBROZIL], “Not Active”; that for `N[C@H]1C(O)O[C@H](CO)[C@@H](O)[C@@H]1O` (stereo partly specified) [GLUCOSAMINE], “Not Active”. With `NN` [HYDRAZINE], the Phospholipidosis result with Phospholipidosis [1] is listed as “Not Active”. Still for that read-out and setting: the result for `NC(=O)NO` [HYDROXYUREA] reads “Not Active”. The same measure, in the same setting: the result for `CN(C)C(=N)N=C(N)N` [METFORMIN] reads “Not Active”. Still for that read-out and setting: the result for `CCC(=O)C(CC(C)N(C)C)(c1ccccc1)c1ccccc1` (stereo unspecified) [METHADONE] reads “Not Active”; that for `CN(Cc1cnc2nc(N)nc(N)c2n1)c1ccc(C(=O)N[C@@H](CCC(=O)O)C(=O)O)cc1` [METHOTREXATE], “Not Active”. With `C[C@](N)(Cc1ccc(O)c(O)c1)C(=O)O` [METHYLDOPA], in the series with Phospholipidosis [1], the Phospholipidosis result was “Not Active”. On the same count and under the same terms, the result for `CCC1(c2ccccc2)C(=O)NC(=O)NC1=O` [PHENOBARBITAL] reads “Not Active”.

Turning to `CNC(=O)Oc1ccc2c(c1)[C@]1(C)CCN(C)[C@@H]1N2C` [PHYSOSTIGMINE], the Phospholipidosis result with Phospholipidosis [1] is reported as “Not Active”. The same measure, in the same setting: to `Cc1cccc(Nc2cc(Cl)nc(SCC(=O)O)n2)c1C` [PIRINIXIC ACID] belongs “Not Active”.

For the compound `CN1C(C(=O)Nc2ccccn2)=C(O)c2ccccc2S1(=O)=O` [PIROXICAM], the Phospholipidosis result with Phospholipidosis [1] is recorded as “Not Active”.

`CCN(CC)CCOC(=O)c1ccc(N)cc1` [PROCAINE]: in the series on Phospholipidosis [1], the Phospholipidosis result is “Not Active”. As for `CO[C@H]1/C=C/O[C@@]2(C)Oc3c(C)c(O)c4c(O)c(c(/C=N/N5CCN(C)CC5)c(O)c4c3C2=O)NC(=O)/C(C)=C\C=C\[C@H](C)[C@H](O)[C@@H](C)[C@@H](O)[C@@H](C)[C@H](OC(C)=O)[C@@H]1C` [RIFAMPIN], the Phospholipidosis result in the series with Phospholipidosis [1] is “Not Active”. Same read-out and setting: the result for `CN(C)[C@@H]1C(O)=C(C(=O)NCN2CCCC2)C(=O)[C@@]2(O)C(O)=C3C(=O)c4c(O)cccc4[C@@](C)(O)[C@H]3C[C@@H]12` [ROLITETRACYCLINE] reads “Not Active”; that for `Cc1cn([C@H]2C=C[C@@H](CO)O2)c(=O)[nH]c1=O` [STAVUDINE], “Not Active”. Same read-out and setting: to `N=C(N)NCCCCCCCCCCNC(=N)N` [SYNTHALIN] belongs “Not Active”; to `Nc1c2c(nc3ccccc13)CCCC2` [TACRINE], “Not Active”; to `Cn1nnc2c(C(N)=O)ncn2c1=O` [TEMOZOLOMIDE], “Not Active”.

As to `CC(=N)S` [THIOACETAMIDE], the Phospholipidosis result in the series with Phospholipidosis [1] is listed as “Not Active”.

Consider `CCCC(CCC)C(=O)[O-].[Na+]` [VALPROATE SODIUM], for which the Phospholipidosis result in the series on Phospholipidosis [1] was “Not Active”. The same measure, in the same setting: to `Cc1cn([C@H]2C[C@H](N=[N+]=[N-])[C@@H](CO)O2)c(=O)[nH]c1=O` [ZIDOVUDINE] belongs “Not Active”; to `CC(c1cc2ccccc2s1)N(O)C(N)=O` (stereo unspecified) [ZILEUTON], “Not Active”.
